In patent publication US9198965B2 (priority 2008, dated 2015):
Where two headings read alike, the source gives them in different places.

Experiments:
[1] = system: PR/8 virus; assay: Sedimentation density profiles (density gradient ultracentrifugation) of peptide-treated virus; design: species or system A/PuertoRico/8/34 (PR/8, H1N1); conditions: EB peptide-treated samples (10 μM, 30 μM)
[2] = system: RAW 264.7 macrophages; assay: Association of FITC-labeled virus with macrophages by flow cytometry; type: cell-based; conditions: virus treated with 10 μM EB; compared to 0 μM
[3] = system: VN/1203; assay: Virus specific IgG ELISA after vaccination with inactivated VN/1203 (Example 3); type: in vivo, Balb/C mice; conditions: 28 days post-vaccination; EB at all concentrations (10 μM, 50 μM, 0.5 mM, 1 mM); i.m., boost day 15
[4] = system: VN/1203; type: in vivo, Balb/C mice
[5] = system: VN/1203; type: in vivo, Balb/C mice; conditions: suboptimal dose vaccine
[6] = system: VN/1203; assay: Influenza-specific total IgG, IgG1, IgG2 ELISA after suboptimal dose VN/1203 vaccine (Example 5); design: species or system Balb/C mice; conditions: mouse, in vivo
[7] = system: VN/1203 virus; assay: Microneutralization assay of sera, suboptimal dose VN/1203 vaccine (Example 5); design: species or system Balb/C mice; conditions: mouse, in vivo
[8] = system: PR/8 virus; type: in vivo, Balb/C mice; conditions: suboptimal dose PR/8 vaccine
[9] = system: PR/8 virus; assay: Influenza-specific neutralizing antibodies in sera, suboptimal dose PR/8 vaccine (Example 6); type: in vivo, Balb/C mice; conditions: day 15 post-vaccination; pooled serum; values <40 negative
[10] = system: VN/1203 virus; type: in vivo, Balb/C mice; conditions: day 15 and 28 post-vaccination; inactivated VN/1203; EB 200 μM
[11] = system: PR/8 virus; assay: Splenocyte IFN-γ ELISpot assay, PR/8 vaccine (Example 8); type: in vivo, Balb/C mice; conditions: day 15 post-vaccination; inactivated PR/8; EB 50 μM or 200 μM
[12] = system: influenza viruses; conditions: in vitro; cited from earlier work
[13] = system: H5N1 influenza virus; conditions: mouse, in vivo; cited from earlier work
[14] = system: influenza virus; conditions: cited from earlier work

RRKKAAVALLPAVLLALLAP [EB]
HA activity as compared to virus alone [1]: considerably lower
shift in macrophage association peak of FITC-PR/8 [2]: minimal shift
virus specific IgG titers compared to inactivated virus alone or alum adjuvanated vaccine [3]: increased
weight change compared to day 0 of challenge ([4]; […], EB 10 μM, 50 μM, 0.5 mM or 1 mM, alum 0.5 mg/ml): weight increase
infectious virus in lungs (TCID50 on MDCK cells) ([4]; […], VN/1203 pretreated with 50 μM or greater amounts of EB): no detectable infectious virus
infectious virus in lungs (TCID50 on MDCK cells) ([4]; day 10, any of the groups vaccinated with inactivated VN/1203 and EB): no detectable infectious virus
weight loss ([5]; 200 μM EB, no boost): little to no weight loss
weight loss ([5]; 200 μM EB, with boost): little to no weight loss
score for clinical signs of infection (0-3) ([5]; 200 μM EB, without boost): 1
survival rate ([5]; EB 50 μM): > 60%
score for clinical signs of infection (0-3) ([5]; peptide 200 μM, with boost): 0
total IgG, IgG1, and IgG2 levels versus suboptimal dose of VN/1203 alone [6]: the same
virus neutralizing antibody titers (microneutralization) [7]: negative
survival rate ([8]; EB 50 μM): 100%
survival rate ([8]; EB 200 μM): 100%
influenza-specific neutralizing antibody titers [9]: negative
IFN-γ levels (IFN-γ secreting splenocytes) [10]: increases
IFN-γ levels (IFN-γ secreting splenocytes) [11]: increases
concentrations at which EB inhibits virus replication [12]: ≥ 10 µM
clinical signs of H5N1 influenza virus infection [13]: prevented clinical signs
survival [13]: increased survival
influenza virus attachment to cells [14]: inhibited

RRKKLPAVLLALLAP [SEQ ID NO: 4 peptide, derivative of EB retaining RRKK tag with 5 amino acid residues removed from the N-terminus]
weight loss ([5]; peptide 200 μM): around 20%
score for clinical signs of infection (0-3) ([5]; peptide 200 μM, with boost): 2
